Tests used:
AmpC P. aeruginosa = AmpC P. aeruginosa (Pseudomonas aeruginosa, UniProt P24735); test: β-lactamase inhibitory activity, determination of IC50 (nitrocefin hydrolysis)
OXA-48 = molecular target: T1, OXA-48 (Klebsiella pneumoniae, UniProt Q6XEC0); test: as above; type: biochemical; conditions: class (D); nitrocefin 200 μM, 30 min pre-incubation; read-out: IC50 β-lactamase OXA-48
T1 construct: made in house; host or cells: E. coli

TEM-1 = molecular target: T2, TEM-1 (Escherichia coli, UniProt P62593); test: as above; type: biochemical
T2 construct: made in house; host or cells: E. coli
T2 sequence (P62593 24-286 limits assumed): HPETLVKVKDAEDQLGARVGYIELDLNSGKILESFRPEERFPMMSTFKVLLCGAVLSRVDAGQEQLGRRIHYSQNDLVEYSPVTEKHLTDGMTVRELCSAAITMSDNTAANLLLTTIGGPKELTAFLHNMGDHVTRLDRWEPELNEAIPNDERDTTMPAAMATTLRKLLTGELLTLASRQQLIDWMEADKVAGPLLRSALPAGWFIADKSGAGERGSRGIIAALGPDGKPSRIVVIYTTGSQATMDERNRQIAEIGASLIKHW

OXA-1 = molecular target: T3, OXA-1 (Escherichia coli, UniProt P13661); test: as above; type: biochemical; conditions: class (D); nitrocefin 200 μM, 30 min pre-incubation; read-out: IC50 β-lactamase OXA-1
T3 construct: made in house; host or cells: E. coli
T3 sequence (P13661 26-276): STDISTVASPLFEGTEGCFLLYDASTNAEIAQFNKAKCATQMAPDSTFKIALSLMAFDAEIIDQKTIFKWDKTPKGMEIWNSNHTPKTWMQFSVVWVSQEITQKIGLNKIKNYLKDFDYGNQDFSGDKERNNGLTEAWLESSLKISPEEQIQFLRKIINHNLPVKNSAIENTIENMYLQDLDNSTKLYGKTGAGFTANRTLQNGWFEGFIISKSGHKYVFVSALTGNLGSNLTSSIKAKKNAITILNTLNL

OXA-11 = molecular target: T4, OXA-11 (Pseudomonas aeruginosa, UniProt Q06778); test: as above; type: biochemical
T4 construct: made in house; host or cells: E. coli
T4 sequence (Q06778 21-266): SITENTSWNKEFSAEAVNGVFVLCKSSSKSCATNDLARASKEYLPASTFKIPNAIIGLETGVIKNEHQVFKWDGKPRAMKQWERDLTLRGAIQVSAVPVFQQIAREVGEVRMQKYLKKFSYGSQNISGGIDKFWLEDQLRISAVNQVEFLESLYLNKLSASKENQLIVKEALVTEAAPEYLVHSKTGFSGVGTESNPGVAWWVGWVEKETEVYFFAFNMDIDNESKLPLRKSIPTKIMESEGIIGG

[1] = test system: E. cloacae UFR51 (SHV-12, IMP-8); test: MIC of ceftazidime (CAZ) in combination with compounds at 4 μg/mL, broth microdilution; type: cell-based; conditions: strain UFR51; MIC of CAZ with compound fixed at 4 μg/mL
Procedure: (§1) Method 2: MIC of Compounds and Synergy with Ceftazidime Against Bacterial Isolates (Table 2 and 3)
(§2) Compounds of the present invention were assessed against genotyped bacterial strains alone or in combination with the β-lactam ceftazidime (CAZ). In the assays, MICs of said compounds, or of ceftazidime at fixed concentrations of said compounds were determined by the broth microdilution method according to the Clinical Laboratory Standards Institute (CLSI-M7-A7). Briefly, compounds alone according to the invention were prepared in DMSO and spotted (2 μL each) on sterile polystyrene plates (Corning, 3788). Compounds and ceftazidime dilutions were prepared in DMSO and spotted (1 μL each) on sterile polystyrene plates (Corning, 3788). Log phase bacterial suspensions were adjusted to a final density of 5×10^5 cfu/mL in cation-adjusted Mueller-Hinton broth (Becton-Dickinson) and added to each well (98 μL). Microplates were incubated for 16-20 h at 35° C. in ambient air. The MIC of the compounds was defined as the lowest concentration of said compounds that prevented bacterial growth as read by visual inspection. The MIC of ceftazidime at each compound concentration was defined as the lowest concentration of ceftazidime that prevented bacterial growth as read by visual inspection.

[2] = test system: E. coli UFR41 (TEM-1, CTX-M-15, CMY-2, OXA-1, NDM-4); test: as above; type: cell-based; conditions: strain UFR41; MIC of CAZ with compound fixed at 4 μg/mL
Procedure: as §1, §2

KPC-2 = molecular target: T5, KPC-2 (Klebsiella pneumoniae, UniProt Q9F663); test: β-lactamase inhibitory activity, determination of IC50 (nitrocefin hydrolysis); type: biochemical; conditions: class (A); nitrocefin 200 μM, 30 min pre-incubation; read-out: IC50 β-lactamase KPC-2
T5 construct: made in house; host or cells: E. coli
T5 sequence (Q9F663 25-293 limits assumed): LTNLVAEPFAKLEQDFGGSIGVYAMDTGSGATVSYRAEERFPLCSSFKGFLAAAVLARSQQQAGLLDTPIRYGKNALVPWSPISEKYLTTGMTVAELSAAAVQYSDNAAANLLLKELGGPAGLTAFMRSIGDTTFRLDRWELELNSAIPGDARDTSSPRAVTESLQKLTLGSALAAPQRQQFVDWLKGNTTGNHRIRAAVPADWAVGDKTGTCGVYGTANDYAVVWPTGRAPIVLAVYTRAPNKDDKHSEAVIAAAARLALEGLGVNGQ

CTX-M-15 = molecular target: T6, CTX-M-15 (Escherichia coli, UniProt Q9EXV5); test: as above; type: biochemical; conditions: class (A); nitrocefin 200 μM, 30 min pre-incubation; read-out: IC50 β-lactamase CTX-M-15
T6 construct: made in house; host or cells: E. coli
T6 sequence (Q9EXV5 entry or part of it): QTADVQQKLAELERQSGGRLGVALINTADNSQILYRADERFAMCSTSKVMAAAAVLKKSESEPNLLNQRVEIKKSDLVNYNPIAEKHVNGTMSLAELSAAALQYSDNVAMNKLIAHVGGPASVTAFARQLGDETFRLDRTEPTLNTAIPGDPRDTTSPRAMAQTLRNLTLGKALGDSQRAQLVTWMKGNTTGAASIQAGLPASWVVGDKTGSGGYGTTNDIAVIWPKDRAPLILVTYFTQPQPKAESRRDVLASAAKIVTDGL

[3] = test system: E. coli UFR18 (CTX-M-15, OXA-204); test: MIC of compounds alone, broth microdilution; type: cell-based; conditions: Escherichia coli; strain UFR18 (E. coli); read-out: MIC compounds of the invention alone
Outline: (§3)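 Broth microdilution per CLSI M7-A7: compounds alone, in DMSO, challenged with log-phase bacteria at 5×10^5 cfu/mL in cation-adjusted Mueller-Hinton broth. Plates incubated 16-20 h at 35° C in ambient air; MIC is the lowest concentration preventing visible growth.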

[4] = test system: E. coli UFR32 (TEM-1, VEB-1, OXA-10); test: MIC of compounds alone, broth microdilution; type: cell-based; conditions: Escherichia coli; strain UFR32 (E. coli); read-out: MIC compounds of the invention alone
Outline: as §3

[5] = test system: P. aeruginosa CIP107051 (TEM-24); test: MIC of compounds alone, broth microdilution; type: cell-based; conditions: Pseudomonas aeruginosa; strain CIP107051 (P. aeruginosa); read-out: MIC compounds of the invention alone
Outline: as §3

E. coli RGN238 (OXA-1) = test: MIC of compounds alone, broth microdilution; type: cell-based; conditions: Escherichia coli; strain RGN238 (E. coli); read-out: MIC compounds of the invention alone
Outline: as §3

[6] = test system: K. pneumoniae 6299 (TEM-1, SHV-11, OXA-163); test: MIC of compounds alone, broth microdilution; type: cell-based; conditions: Klebsiella pneumoniae; strain 6299 (K. pneumoniae); read-out: MIC compounds of the invention alone
Outline: as §3

[7] = test system: K. pneumoniae UFR39 (CTX-M-15, NDM-1); test: MIC of compounds alone, broth microdilution; type: cell-based; conditions: Klebsiella pneumoniae; strain UFR39 (K. pneumoniae); read-out: MIC compounds of the invention alone
Outline: as §3

[8] = test system: E. cloacae UFR51 (SHV-12, IMP-8); test: MIC of compounds alone, broth microdilution; type: cell-based; conditions: Enterobacter cloacae; strain UFR51 (E. cloacae); read-out: MIC compounds of the invention alone
Outline: as §3

[9] = test system: E. coli 131119 (TEM-1, OXA-48); test: MIC of compounds alone, broth microdilution; type: cell-based; conditions: Escherichia coli; strain 131119 (E. coli); read-out: MIC compounds of the invention alone
Outline: as §3

[10] = test system: E. cloacae 260508 (TEM-1, CTX-M-15); test: MIC of compounds alone, broth microdilution; type: cell-based; conditions: Enterobacter cloacae, read-out: MIC compounds of the invention alone
Outline: as §3

[11] = test system: E. coli UFR61O (TEM-1, KPC-2); test: MIC of compounds alone, broth microdilution; type: cell-based; conditions: Escherichia coli; strain UFR61O (E. coli); read-out: MIC compounds of the invention alone
Outline: as §3

[12] = test system: K. pneumoniae BAA-1898 (TEM-1, SHV-11, SHV-12, KPC-2); test: MIC of compounds alone, broth microdilution; type: cell-based; conditions: Klebsiella pneumoniae, BAA1898; strain BAA-1898 (K. pneumoniae); read-out: MIC compounds of the invention alone
Outline: as §3

[13] = test system: K. oxytoca UFR21 (TEM-1, CTX-M-15, OXA-48); test: MIC of compounds alone, broth microdilution; type: cell-based; conditions: Klebsiella oxytoca, read-out: MIC compounds of the invention alone
Outline: as §3

[14] = test system: K. pneumoniae UFR77 (CMY-2); test: MIC of compounds alone, broth microdilution; type: cell-based; conditions: Klebsiella pneumoniae; strain UFR77 (K. pneumoniae); read-out: MIC compounds of the invention alone
Outline: as §3

[15] = test system: K. pneumoniae UFR24 (TEM-1, SHV-2, SHV-11, OXA-1, OXA-48, OXA-47); test: MIC of compounds alone, broth microdilution; type: cell-based; conditions: Klebsiella pneumoniae; strain UFR24 (K. pneumoniae); read-out: MIC compounds of the invention alone
Outline: as §3

E. cloacae P99 (AmpC) = test: MIC of compounds alone, broth microdilution; type: cell-based; conditions: Enterobacter cloacae; strain P99 (E. cloacae); read-out: MIC compounds of the invention alone
Outline: as §3

[16] = test system: E. coli UFR74 (SHV-1, DHA-1); test: MIC of compounds alone, broth microdilution; type: cell-based; conditions: Escherichia coli; strain UFR74 (E. coli); read-out: MIC compounds of the invention alone
Outline: as §3

[17] = test system: E. cloacae UFR85 (TEM-1, CTX-M-15, AmpC); test: MIC of compounds alone, broth microdilution; type: cell-based; conditions: Enterobacter cloacae, read-out: MIC compounds of the invention alone
Outline: as §3

SHV-1 = molecular target: T7, SHV-1 (Klebsiella pneumoniae, UniProt P0AD64); test: β-lactamase inhibitory activity, determination of IC50 (nitrocefin hydrolysis); type: biochemical
T7 construct: made in house; host or cells: E. coli
T7 sequence (P0AD64 22-286): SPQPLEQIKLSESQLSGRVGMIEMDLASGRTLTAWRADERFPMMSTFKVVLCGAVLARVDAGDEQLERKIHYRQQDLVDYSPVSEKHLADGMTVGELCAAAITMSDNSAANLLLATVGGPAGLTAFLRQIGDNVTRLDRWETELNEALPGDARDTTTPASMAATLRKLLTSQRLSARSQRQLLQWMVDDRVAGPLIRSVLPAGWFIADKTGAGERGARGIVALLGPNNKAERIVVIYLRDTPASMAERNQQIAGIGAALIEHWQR

AmpC (P99) = AmpC (P99) (Enterobacter cloacae, UniProt P05364); test: as above
AmpC (P99), sequence (P05364 21-381): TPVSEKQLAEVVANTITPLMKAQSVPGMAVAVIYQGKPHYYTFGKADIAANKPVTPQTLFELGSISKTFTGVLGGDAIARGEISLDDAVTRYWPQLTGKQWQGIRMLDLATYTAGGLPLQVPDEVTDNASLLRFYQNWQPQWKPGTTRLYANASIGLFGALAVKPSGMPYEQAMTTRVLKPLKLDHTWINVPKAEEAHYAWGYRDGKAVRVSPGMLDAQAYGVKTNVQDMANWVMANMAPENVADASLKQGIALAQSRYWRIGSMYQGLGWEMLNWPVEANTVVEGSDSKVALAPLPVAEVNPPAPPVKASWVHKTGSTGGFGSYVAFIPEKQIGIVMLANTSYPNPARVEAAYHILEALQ

OXA-15 = molecular target: T8, OXA-15 (Pseudomonas aeruginosa, UniProt Q51574); test: biochemical
T8 construct: made in house; host or cells: E. coli
T8 sequence (Q51574 22-275): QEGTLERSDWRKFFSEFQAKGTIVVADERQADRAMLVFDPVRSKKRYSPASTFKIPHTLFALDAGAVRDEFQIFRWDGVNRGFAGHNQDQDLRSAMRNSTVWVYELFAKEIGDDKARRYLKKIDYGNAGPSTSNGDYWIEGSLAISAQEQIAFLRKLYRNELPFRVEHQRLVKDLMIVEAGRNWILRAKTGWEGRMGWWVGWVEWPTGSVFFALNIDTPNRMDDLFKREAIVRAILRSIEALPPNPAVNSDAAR

T1 sequence (Q6XEC0 23-265 limits assumed): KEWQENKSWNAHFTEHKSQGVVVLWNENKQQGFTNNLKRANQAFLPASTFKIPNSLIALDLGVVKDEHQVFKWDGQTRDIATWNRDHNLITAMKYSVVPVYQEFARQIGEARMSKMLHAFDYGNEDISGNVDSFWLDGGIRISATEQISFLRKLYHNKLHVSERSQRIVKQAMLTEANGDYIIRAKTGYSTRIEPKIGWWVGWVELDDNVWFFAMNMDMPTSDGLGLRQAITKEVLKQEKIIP
AmpC P. aeruginosa, sequence (P24735 27-397): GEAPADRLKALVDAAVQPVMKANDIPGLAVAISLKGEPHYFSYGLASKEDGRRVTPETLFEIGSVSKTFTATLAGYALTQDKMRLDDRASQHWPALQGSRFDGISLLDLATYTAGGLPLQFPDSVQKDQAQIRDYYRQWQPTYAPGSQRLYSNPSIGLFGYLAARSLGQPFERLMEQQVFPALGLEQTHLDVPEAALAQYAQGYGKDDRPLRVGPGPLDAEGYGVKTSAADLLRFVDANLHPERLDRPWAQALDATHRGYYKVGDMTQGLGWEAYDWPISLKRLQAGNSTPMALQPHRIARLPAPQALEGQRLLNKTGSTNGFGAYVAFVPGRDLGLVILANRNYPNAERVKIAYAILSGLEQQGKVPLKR

O=C1N2CC(c3cccnc3)=CC(C2)N1OS(=O)(=O)[O-].[Na+] (centres unmarked) [Example 41, Sodium [3-(3-pyridyl)-7-oxo-1,6-diazabicyclo[3.2.1]oct-3-en-6-yl]sulfate]
IC50 (AmpC P. aeruginosa): 190 nM
IC50 (OXA-48): 1.4 nM
IC50 (TEM-1): 1.8 nM
IC50 (OXA-1): 1400 nM
IC50 (OXA-11): 840 nM
MIC combination of CAZ and compounds of the invention at 4 μg/mL [1]: <0.25 µg/mL
MIC combination of CAZ and compounds of the invention at 4 μg/mL [2]: <0.25 µg/mL
IC50 (KPC-2): 9 nM
IC50 (CTX-M-15): 2.6 nM
MIC [3]: 4 µg/mL
MIC [4]: 8 µg/mL
MIC [5]: > 32 µg/mL
MIC (E. coli RGN238 (OXA-1)): 32 µg/mL
MIC [6]: 16 µg/mL
MIC [7]: 4 µg/mL
MIC [8]: 4 µg/mL
MIC [9]: 4 µg/mL
MIC [10]: 16 µg/mL
MIC [11]: 16 µg/mL
MIC [12]: 8 µg/mL
MIC [13]: 16 µg/mL
MIC [14]: 8 µg/mL
MIC [15]: 16 µg/mL
MIC (E. cloacae P99 (AmpC)): 8 µg/mL
MIC [16]: 16 µg/mL
MIC [17]: 16 µg/mL
IC50 (SHV-1): 3.6 nM
IC50 (AmpC (P99)): 40 nM
IC50 (OXA-15): 150 nM
